Results as given in patent publication US20260028335A1, “NOVEL ISOTHIAZOL-3-YL AND ISOXAZOL-3-YL SULFONAMIDE COMPOUNDS” (Hoffmann-La Roche Inc., priority 2022, published 2026).

What follows are compounds tested against human GPR17 short isoform (Homo sapiens, UniProt Q13304) (assay: GPR17 cAMP assay (hGPR17 cAMP, antagonist mode, TR-FRET)). Settings: CHO-K1 cells stably expressing human GPR17 short isoform; EC80 of agonist MDL29,951; forskolin 15 μM; IBMX 0.5 mM.
Format: cell-based
Description: GPR17 cAMP Assay Protocol:
CHO-K1 cells stably expressing vector containing untagged human GPR17 short isoform (Roche) were cultured at 37° C./5% CO2 in DMEM (Dulbecco's Modified Eagle Medium):F-12 (1:1) supplemented with 10% foetal bovine serum and 400 μg/ml Geneticin.
Changes in intracellular cyclic adenosine monophosphate (cAMP) levels were quantified using the Nano-TRF Detection Assay kit (Roche Diagnostics, Cat. No. 05214386001). This assay allows for direct cAMP quantification in a homogeneous solution. cAMP is detected based on time-resolved fluorescence energy transfer (TR-FRET) and competitive binding of ruthenylated cAMP and endogenous cAMP to an anti-cAMP monoclonal antibody labeled with AlexaFluor-700. The Ruthenium complex serves as the FRET donor and transfers energy to AlexaFluor-700. The FRET signal is inversely proportional to the cAMP concentration.
CHO-GPR17S cells were detached with Accutase and resuspended in assay buffer consisting of Hank's Balanced Salt Solution (HBSS), 10 mM HEPES (4-(2-hydroxyethyl) piperazine-1-ethanesulfonic acid solution) and 0.1% bovine serum albumin (pH 7.4). The cells were seeded in black 384-well plates (Corning) at a density of 10,000 cells/20 μl assay buffer until the addition of compounds.
Test antagonist compounds were serially diluted in dimethyl sulfoxide (DMSO) and spotted in 384-well plates. The compounds were then diluted in HBSS buffer supplemented with an EC80 concentration of MDL29,951 (3-(2-Carboxy-4,6-dichloroindol-3-yl)propionic acid) (GPR17 agonist) plus 3-Isobutyl-1-methylxanthine (IBMX) (0.5 mM final concentration) and added to the cells at room temperature. Forskolin (15 μM final concentration) was added 5 minutes after the test compounds and the cells were incubated at room temperature for 30 minutes. The assay was stopped by adding cAMP detection mix (containing detergents for cell lysis) for 90 minutes at room temperature.
Cellular cAMP was measured using a Paradigm reader (Molecular Devices). The raw data was used to calculate the FRET signal based on the assay's P-factor as per cAMP kit instructions. The data was normalized to the maximal activity of a reference antagonist and dose response curves were fitted to the percent activity of the test compounds using a sigmoidal dose response model (Genedata Screener).
Results in the hGPR17 cAMP assay are provided for compounds of formula I in Table 1

human GPR17 short isoform, sequence (Q13304 29-367): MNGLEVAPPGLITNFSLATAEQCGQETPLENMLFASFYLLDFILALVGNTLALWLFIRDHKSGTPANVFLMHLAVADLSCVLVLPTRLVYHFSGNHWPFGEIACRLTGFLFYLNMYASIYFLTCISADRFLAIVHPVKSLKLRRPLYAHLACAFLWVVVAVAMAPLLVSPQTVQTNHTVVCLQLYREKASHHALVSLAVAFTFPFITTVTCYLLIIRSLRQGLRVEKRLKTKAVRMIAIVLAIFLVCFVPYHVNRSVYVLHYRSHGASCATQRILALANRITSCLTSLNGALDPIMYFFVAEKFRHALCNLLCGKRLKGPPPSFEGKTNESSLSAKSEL

How did the IC50 turn out when `O=S(=O)(Nc1nsc(C2CC2)c1Cl)c1c[nH]c2nc(Cl)ccc12` [Example 3, 6-chloro-N-(4-chloro-5-cyclopropyl-isothiazol-3-yl)-1H-pyrrolo[2,3-b]pyridine-3-sulfonamide] was run?
Its IC50 is 131 nM.

With `CCCc1snc(NS(=O)(=O)c2c[nH]c3cc(Cl)ccc23)c1Cl` [Example 1, 6-chloro-N-(4-chloro-5-propyl-isothiazol-3-yl)-1H-indole-3-sulfonamide] as the compound, how does the IC50 read?
Its IC50 is 19 nM.

For `COc1snc(NS(=O)(=O)c2c[nH]c3cc(Cl)ccc23)c1Cl` [Example 10, 6-chloro-N-(4-chloro-5-methoxy-isothiazol-3-yl)-1H-indole-3-sulfonamide], which IC50 is on record?
The IC50 was 113 nM.

How did the IC50 turn out when `CCCc1onc(NS(=O)(=O)c2c[nH]c3cc(Cl)ccc23)c1C` [Example 18, 6-chloro-N-(4-methyl-5-propyl-isoxazol-3-yl)-1H-indole-3-sulfonamide] was run?
The IC50 was 815 nM.

With `CCc1onc(NS(=O)(=O)c2c[nH]c3cc(Cl)ccc23)c1C` [Example 7, 6-chloro-N-(5-ethyl-4-methyl-isoxazol-3-yl)-1H-indole-3-sulfonamide] as the compound, how does the IC50 read?
The IC50 was 452 nM.

How did the IC50 turn out when `Cc1snc(NS(=O)(=O)c2c[nH]c3cc(Cl)ccc23)c1C1CC1` [Example 14, 6-chloro-N-(4-cyclopropyl-5-methyl-isothiazol-3-yl)-1H-indole-3-sulfonamide] was run?
Its IC50 is 1110 nM.

Which IC50 does the source give for `Cc1cc(NS(=O)(=O)c2c[nH]c3cc(Cl)ccc23)ns1` [Example 13, 6-chloro-N-(5-methylisothiazol-3-yl)-1H-indole-3-sulfonamide] here?
The IC50 was 629 nM.

For `N#CCCc1snc(NS(=O)(=O)c2c[nH]c3cc(Cl)ccc23)c1Cl` [Example 12, 6-chloro-N-[4-chloro-5-(2-cyanoethyl)isothiazol-3-yl]-1H-indole-3-sulfonamide], which IC50 is on record?
The IC50 was 74 nM.

For `CCOc1snc(NS(=O)(=O)c2c[nH]c3cc(Cl)ccc23)c1Cl` [Example 11, 6-chloro-N-(4-chloro-5-ethoxy-isothiazol-3-yl)-1H-indole-3-sulfonamide], which IC50 is on record?
The IC50 was 54 nM.

How did the IC50 turn out when `Cc1snc(NS(=O)(=O)c2c[nH]c3cc(Cl)ccc23)c1Cl` [Example 5, 6-chloro-N-(4-chloro-5-methyl-isothiazol-3-yl)-1H-indole-3-sulfonamide] was run?
Its IC50 is 106 nM.

With `Cc1snc(NS(=O)(=O)c2c[nH]c3cc(Cl)ccc23)c1C#N` [Example 15, 6-chloro-N-(4-cyano-5-methyl-isothiazol-3-yl)-1H-indole-3-sulfonamide] as the compound, how does the IC50 read?
The IC50 was 499 nM.

For `O=S(=O)(Nc1nsc(C2CC2)c1Cl)c1c[nH]c2cc(Cl)ccc12` [Example 2, 6-chloro-N-(4-chloro-5-cyclopropyl-isothiazol-3-yl)-1H-indole-3-sulfonamide], which IC50 is on record?
The IC50 was 51 nM.

`O=S(=O)(Nc1nsc(C2CC2)c1Cl)c1c[nH]c2nc(Br)ccc12` [Example 4, 6-bromo-N-(4-chloro-5-cyclopropyl-isothiazol-3-yl)-1H-pyrrolo[2,3-b]pyridine-3-sulfonamide] was tested. Which IC50 did it give?
The IC50 was 103 nM.

How did the IC50 turn out when `Cc1onc(NS(=O)(=O)c2c[nH]c3cc(Cl)ccc23)c1Br` [Example 21, N-(4-bromo-5-methyl-isoxazol-3-yl)-6-chloro-1H-indole-3-sulfonamide] was run?
Its IC50 is 315 nM.

Which IC50 does the source give for `Cc1snc(NS(=O)(=O)c2c[nH]c3cc(Cl)ccc23)c1C` [Example 6, 6-chloro-N-(4,5-dimethylisothiazol-3-yl)-1H-indole-3-sulfonamide] here?
Its IC50 is 216 nM.

`COc1c(NS(=O)(=O)c2c[nH]c3cc(Cl)ccc23)nsc1C` [Example 16, 6-chloro-N-(4-methoxy-5-methyl-isothiazol-3-yl)-1H-indole-3-sulfonamide] was tested. Which IC50 did it give?
Its IC50 is 857 nM.

Which IC50 does the source give for `Cc1onc(NS(=O)(=O)c2c[nH]c3cc(Cl)ccc23)c1C` [Example 19, 6-chloro-N-(4,5-dimethylisoxazol-3-yl)-1H-indole-3-sulfonamide] here?
The IC50 was 550 nM.

How did the IC50 turn out when `Cc1onc(NS(=O)(=O)c2c[nH]c3cc(Cl)ccc23)c1Cl` [Example 20, 6-chloro-N-(4-chloro-5-methyl-isoxazol-3-yl)-1H-indole-3-sulfonamide] was run?
Its IC50 is 404 nM.

With `CCc1c(NS(=O)(=O)c2c[nH]c3cc(Cl)ccc23)nsc1C` [Example 9, 6-chloro-N-(4-ethyl-5-methyl-isothiazol-3-yl)-1H-indole-3-sulfonamide] as the compound, how does the IC50 read?
The IC50 was 659 nM.

How did the IC50 turn out when `CCCc1snc(NS(=O)(=O)c2c[nH]c3cc(Cl)ccc23)c1OC` [Example 17, 6-chloro-N-(4-methoxy-5-propyl-isothiazol-3-yl)-1H-indole-3-sulfonamide] was run?
Its IC50 is 78 nM.

How did the IC50 turn out when `CCc1snc(NS(=O)(=O)c2c[nH]c3cc(Cl)ccc23)c1Cl` [Example 8, 6-chloro-N-(4-chloro-5-ethyl-isothiazol-3-yl)-1H-indole-3-sulfonamide] was run?
The IC50 was 105 nM.
